Data as given in US20060110371A1, “Control of indoleamine 2,3 deoxygenase expression and activity” (INSTITUT PASTEUR, priority 2004, published 2006).

What was measured:
[1] = test system: tumors expressing IDO; settings: mice with IDO-transfected tumors; cited from earlier work
[2] = test system: IDO mRNA; assay: IDO mRNA expression by quantitative RT-PCR in monocyte-derived DCs; type: cell-based, human; settings: for effect on IDO mRNA levels induced by PGE2 or forskolin plus TNFα: inhibitor present during 48 hrs culture
Method: Isolation and preparation of cells. Peripheral blood mononuclear cells (PBMCs), DCs and T cells were prepared as described. Briefly, buffy coats were obtained from normal donors (EFS, Rungis) and PBMCs were isolated by sedimentation over Ficoll-Hypaque (Pharmacia Biotech, Piscataway, N.J.). CD 14-enriched and CD-14-depleted fractions were prepared by the use of CD14 Miltenyi microbeads followed by magnetic cell sorting according to the manufacturers' instruction (Miltenyi Biotech, Auburn, Calif.). Immature DCs were prepared by the use of CD14+ fraction by culturing cells in the presence of GM-CSF (Berlix, Seattle, Wash.) and IL-4 (R&D Systems, Minneapolis, Minn.) for 7 days. GM-CSF (1000 U/ml) and IL-4 (500 U/ml) were added to the cultures on days 0, 2, and 4. To generate mature DCs, the cultures were transferred to fresh wells on days 6-7 and the indicated maturation stimulus was added for an additional 1-2 days. At days 6-7, >95% of the cells were CD13^−CD83^−HLA-r^lo DCs. After maturation, on days 8-9, 70-95% of the cells were of the mature […] phenotype. CD4+ and CD8+ T cells were purified from the CD14− fraction to >99% purity by positive selection with the MACS column purification system.
Quantitative analysis of IDO mRNA expression. IDO mRNA detection by real-time PCR. Briefly, RNA was extracted by Tri-reagent (Sigma) and cDNA was synthesized from 1-2 μg RNA using oligo dT (Roche) and Superscript reverse transcriptase (Invitrogen) according to manufacturers' instructions. IDO specific mRNA is quantified relative to GAPDH or TBP (TATA box Binding Protein) using the following primers: IDO forward: 5′[…]-3′ (SEQ ID NO:1), IDO reverse: 5′-[…]-3′ (SEQ ID NO:2), GAPDH forward: 5′[…]-3′ (SEQ ID NO:3), GAPDH reverse: 5′-[…]-3′ (SEQ ID NO:4) TBP forward: 5′-[…]-3′ (SEQ ID NO: 5); TBP reverse: 5′-[…]-3′ (SEQ ID NO: 6),Primers for EP receptors are described in Kamphuis et al. Invest Ophthalmol Vis Sci. 42, 3209-3215 (2001). Quantitative RT-PCR was performed using the SYBR® Green JumpStart™ Taq ReadyMix™ (Sigma) according to manufacturer's instructions. The reactions were run on a PTC200 equipped with a Chromo4™ detector (MJ Research, Mass., USA). […] The ratio gene of interest/housekeeping genes was calculated according to the formula: ratio=2^−dCt (dCT=mean Ct gene−mean Ct housekeeping). […]
Based on IDO's proposed role in immune tolerance, the present inventors evaluated the effect of different DC maturation stimuli on IDO expression. […] The present inventors first established assays to monitor IDO mRNA expression using realtime quantitative RT-PCR (qPCR), and Western blot. RNA was extracted from immature DCs (iDC) exposed to distinct maturation stimuli and IDO expression was quantified as described in the Materials and Methods.

[3] = target: human prostanoid receptors; settings: four receptors (EP1-4) binding PGE2 with high affinity; cited from earlier work
[4] = test system: EP2; assay: EP2 mRNA expression in DCs by quantitative RT-PCR; type: cell-based, human; settings: relative to TBP
Method: (A) The present inventors monitored EP2 and EP4 mRNA expression in DCs exposed to TNFα, PGE2 or a combination of both stimuli. TBP was used as a reference for our qPCR studies as its expression levels matched that of the EP-Rs. White bars represent EP2 levels; black bars indicated EP4 expression. […] All were used at a concentration of 50 μM.
Briefly, RNA was extracted by Tri-reagent (Sigma) and cDNA was synthesized from 1-2 μg RNA using oligo dT (Roche) and Superscript reverse transcriptase (Invitrogen) according to manufacturers' instructions. […] Quantitative RT-PCR was performed using the SYBR® Green JumpStart™ Taq ReadyMix™ (Sigma) according to manufacturer's instructions. The reactions were run on a PTC200 equipped with a Chromo4™ detector (MJ Research, Mass., USA). […] All the measures were performed in duplicates and validated when the difference in Ct between the 2 measures was less than 0.3. […] The ratio gene of interest/housekeeping genes was calculated according to the formula: ratio=2^−dCt (dCT=mean Ct gene−mean Ct housekeeping). GAPDH and TBP were used to normalize for IDO and EP-receptor mRNA expression, respectively.

[5] = test system: IDO; assay: IDO enzymatic activity, kynurenine by colorimetric assay (Ehrlich's reagent), in monocyte-derived DCs; type: cell-based, human
Method: Determination of IDO enzymatic activity and Kynurenine assays. Tryptophan is catabolized by IDO to N-formylkynrenine, which is rapidly converted to kynurenine. Measurement of kynurenine levels is a surrogate marker for IDO activity.
Except where stated, cells were incubated for an additional 4 hours, followed by harvest of supernatant and quantitation of kynurenine by HPLC or using a colormetric assay.
Alternatively, kynurenine concentrations in the culture supernatants were measured using a colormetric assay (i.e., spectrophotometrically). 50 μl of 30% trichloroacetic acid was added to 100 μl of the culture supernatant, vortexed, and then centrifuged at 10,000 rpm for 5 minutes. A 75 μl volume of the supernatant was added to 75 μl of Ehrlich's reagent (100 mg of […], 5 ml of glacial acetic acid) in a microtiter plate well (96-well format). Optical density was measured at 480 nm filter with a Multiskan MS (Labsystems) microplate reader. The values were referred to a standard curve of defined kynurenine concentrations ([…]).
To validate this approach, the present inventors established a standard curve for quantifying kynurenine and compared the experimental values obtained using the calorimetric assay with those from the HPLC analysis.

Cn1cc(C[C@@H](N)C(=O)O)c2ccccc21 [1-MT, 1-Methyl-D-tryptophan]
protective tumor immunity [1]: recovered the ability to establish protective immunity

O=S(=O)(NCCNC/C=C/c1ccc(Br)cc1)c1cccc2cnccc12 [H-89]
effect on IDO mRNA levels induced by PGE2 or forskolin plus TNFα [2]: block IDO expression

CCCCC[C@H](O)/C=C/[C@H]1[C@H](O)CC(=O)[C@@H]1C/C=C\CCCC(=O)O [PGE2, prostaglandin E2]
Kd [3]: low nM range | increase in transcription of IDO ([2]; PGE2 treated DCs vs iDCs): 50-200 fold | EP2 mRNA expression [4]: down-regulation of EP2 | IDO activity (kynurenine, colorimetric), stimulus alone ([5]; DCs treated with the stimulus alone): lacked measurable IDO activity

Nc1ncnc2c1ncn2C1CCCO1 (centres unmarked) [SQ22536]
effect on IDO mRNA levels induced by PGE2 or forskolin plus TNFα [2]: block IDO expression | effect on IDO activity of PGE2/forskolin +/- TNFα matured DC ([5]; inhibitor added during 48 hrs maturation): blocks IDO expression/activity | optimal inhibitor concentration against forskolin-induced IDO ([5]; titrated): 1 mM

CCCC1([C@H](O)C/C=C/[C@H]2[C@H](O)CC(=O)[C@@H]2CCCCCCC(=O)OC)CCC1 [butaprost, Butaprost]
IDO activity in the presence of TNFα (PGE2 replaced) ([5]; iDCs treated in combination with TNFα, 48 hrs): resulted in the induction of IDO activity

TNFα
IDO mRNA expression (in words) ([2]; iDCs exposed to the stimulus): did not upregulate IDO expression
